We go through nine molecules from patent US5229419A, “Chemotherapeutically active acetogenins” (Purdue Research Foundation, priority 1992, dated 1993).

What is called LC50 is the concentration that kills 50% of the test population.

Data set [1] relates to free-living nematode, Caenorabditis elegans. As to conditions: cited from earlier work.
The test system of a further data set is blow fly larvae. As to conditions: cited from earlier work.
The subject of a further data set is melon aphid. As to conditions: cited from earlier work.
A further data set concerns 3PS lymphocytic leukemia. As to conditions: 0.0125 mg/kg; cited from earlier work.
In data set [2] the test system is 9PS (murine lymphocytic leukemia). As to conditions: cited from earlier work.
For data set [3], the system named is 9KB (human nasopharyngeal carcinoma). The settings on record: cited from earlier work.
The next data set relates to mice. As to conditions: cited from earlier work.
Another data set has as its system mosquito larvae. As to conditions: cited from earlier work.
Another data set relates to Mexican bean beetle. As to conditions: cited from earlier work.
A further data set relates to two spotted spider mites. The settings on record: cited from earlier work.
For another data set, the system named is stripped cucumber beetle. As to conditions: cited from earlier work.
Data set [4] concerns HT-29 (human colon adenocarcinoma). In words: HT-29 cytotoxicity. The format is cell-based. The settings on record: HT-29, read-out: HT29 ED50. How it is done:
(§1) Occasional checks in the potato disc (PD) assay assured us that antitumor activity was present [Ferrigni et al., J. Nat. Prod., 45; 679-686 (1982)]. Cytotoxicity tests were performed at the Purdue Cell Culture Laboratory, Purdue Cancer Center, using standard protocols for 9KB (human nasopharyngeal carcinoma) and 9PS (a chemically-induced murine lymphocytic leukemia) [Suffness et al., Methods In Cancer Research. Vol. 16: 73 (1979), V. T. DeVita, Jr. and H. Busch eds., Academic Press, New York], 9ASK (astrocytoma reversal) [Lgarashi et al., Cell Struct. and Funct., 3: 107 (1978)], A-549 (human lung carcinoma) [Giard et al., J. Nat. Cancer Inst., 51: 1417-1423 (1973)], and HT-29 (human colon adenocarcinoma) [Fogh J. (ed.), Human Tumor Cells, In Vitro, Plenum Press, New York: 115-159 (1975)].
(§2) These two compounds are the most bioactive acetogenins reported to this date. But the safety range for treatments might be larger. In this table, two cytotoxicity tests against human tumor cell lines such as the human lung carcinoma (A-549) [Giard et al., J. Nat. Cancer Inst. 51: 1417-1423 (1973)] and the human colon adenocarcinoma (HT-29) [Fogh, J. (ed.) Human Tumor Cells, In Vitro, pp. 115-159, Plenum Press, New York (1975)] have been performed. […] The mode of action for the acetogenins is still unknown, but it is postulated to involve cell membranes.

The test system of data set [5] is brine shrimp (Artemia salina Leach). Kind of data set: whole plant or invertebrate. Type of data set: in vivo. The settings on record: 24 hrs, read-out: BST LC50. How it is done: The extracts, fractions, and isolated compounds were routinely evaluated for lethality to brine shrimp larvae (BST). The LC50 of brine shrimp (Artemia salina Leach) was determined by substantially the same method described by Meyer et al. [Planta Med., 45: 31-34 (1982)]. The test sample was dissolved in solvent and added to 2-dram vials in an amount to provide 1000, 100, 10, 1, etc. p.p.m. of material in the final brine preparation, assuming complete miscibility in the brine. The vials were dried in vacuo, and artificial sea water, prepared from a commercial salt mixture, was added. Ten brine shrimp larva (nauplii), 48-72 hrs. old, were introduced to the vial, and the volume was made up to 5 ml. with the sea water. After 24 hrs., the percent mortality was computed. Subsequently, LC50 values and 95% confidence limits were calculated by a Finney probit analysis to permit comparison of potencies of extracts and fractions.
(§3) Anticancer activity is a potential use even for the crude extract. The bioassay results for the lethality of brine shrimp (BST), the inhibition of crown gall tumors on potato discs (PD), the reversal in morphology of db-cAMP induced AC glioma cells from that of mature, differentiated astrocytes to that of immature AC glioma cells (mouse brain cells) (9ASK), the dose that inhibits cell growth to one-half that of untreated poorly differentiated human epidermic carcinoma (9KB), the dose that inhibits cell growth to one-half that of a methylcholanthrene-induced lymphoid neoplasm in a DBA/2 mouse (9PS), and the percent displacement in a protein kinase C test for initial extract fractions are shown in Table 1. Obviously, the bioactivity is concentrated in F005.

The test system of data set [6] is 9PS (murine lymphocytic leukemia). In words: 9PS cytotoxicity. As to conditions: Mus musculus; read-out: 9PS ED50. Type of data set: cell-based. How it is done: as §1, §3
Data set [7] relates to A-549 (human lung carcinoma). Kind of data set: A-549 cytotoxicity. The format is cell-based. As to conditions: A549, read-out: A549 ED50. How it is done: as §1, §2
Data set [8] deals with 9KB (human nasopharyngeal carcinoma). In words: 9KB cytotoxicity. Type of data set: cell-based. How it is done: as §1, §3
The test system of a further data set is indicator organisms. In words: pesticidal bioassays, overall. As to conditions: in vivo. How it is done: Pesticidal bioassays were conducted at Eli Lilly Laboratories (Greenfield, Ind.) following standard procedures with eight indicator organisms: mosquito larvae (ML) Aedes aegypti (in the media), blowfly larvae (BFL) (1% in the diet), corn root worm (CRW) Diabrotics undecimcuntata howardii (in soil), two-spotted spider mite (2SSM) Tetranychus urticae (on foliage), southern army worm (SAW) Spodoptera eridania (on foliage), melon aphid (MA) (5000 ppm on foliage), cotton aphid (CA) Aphis gossypii, (on foliage) and Haemonchus contortus (HC) (a nematode, 0.1% in the media).
The compounds can be formulated at concentrations of about 1 to about 200 ppm in conventional liquid or solid forms for application to pest infected areas.

The subject of a further data set is human tumor cell lines. In words: selectivity of cytotoxicity between human tumor cell lines A-549 and HT-29. Type of data set: cell-based. As to conditions: compared with bullatacin; A-549 vs HT-29.
Description: as §2

The subject of data set [9] is P-388 (PS) lymphocytic leukemia. As to conditions: cited from earlier work.
Data set [10] deals with P-388 lymphocytic leukemia. The settings on record: cited from earlier work.
The test system of the next data set is PS. The settings on record: cited from earlier work.

In brackets after ≈: the same amount, converted by molar mass. Where two headings read alike, the source gives them in different places.

As to `CCCCCCCCCCC(O)C1CCC(C2CCC(C(O)CCCCCCCCCCC(O)CC3=CC(C)OC3=O)O2)O1` (stereo not shown) [Asimicin], the pesticidal activity result (in data set [1]; in the data set on blow fly larvae; in the data set on melon aphid; in the data set on mosquito larvae; in the data set on Mexican bean beetle; in the data set on two spotted spider mites) was “Promising pesticidal activity” throughout. Besides, in the data set with stripped cucumber beetle, the pesticidal activity result is reported as “Promising pesticidal activity”. Further, in the data set with 3PS lymphocytic leukemia, the “% T/C” value is 124 % T/C. The “9PS ED50” value in data set [2] is reported as < 10^-7 μg/ml. The “9KB ED50” value in [3] was < 10^-5 μg/ml. In addition, the “toxic to mice at” value with mice is 6.25 mg/kg.
As to `CCCCCCCCCC[C@H](OC(C)=O)[C@H]1CC[C@H]([C@H]2CC[C@H]([C@@H](CCCCCCCCCC[C@H](CC3=C[C@H](C)OC3=O)OC(C)=O)OC(C)=O)O2)O1` [Bullatacin triacetate], the IC50 in data set [4] is more than 100 ng/mL; in data set [6], 0.00389 µg/mL; in data set [7], 2 ng/mL. The LC50 in data set [5] came to 5.7 µg/mL. Besides, in data set [8], the “9KB ED50” value was found to be 6.85e-07 µg/mL.
For `CCCCCCCCCC[C@H](OC(C)=O)[C@H]1CC[C@H]([C@H]2CC[C@H]([C@@H](CCCCCCCCCC[C@@H]3C[C@@H](CC(C)=O)C(=O)O3)OC(C)=O)O2)O1` [Bullatacinone diacetate], the IC50 in [4] was 100 ng/mL; in data set [6], 0.0422 µg/mL; in data set [7], 28 ng/mL. The LC50 in data set [5] was more than 10 µg/mL. For the same molecule, the “9KB ED50” value in data set [8] worked out at 5000 µg/mL.
Consider `CCCCCCCCCC[C@H](O)[C@H]1CC[C@H]([C@H]2CC[C@H]([C@H](O)CCCCCCCCCCC3CC(CC(C)=O)C(=O)O3)O2)O1` (stereo partly shown) [Bullatacinone], for which the 50% lethal concentration (LC50) in data set [5] was determined as 0.003 µg/mL (≈ 4.82 nM). For the same molecule, the IC50 came out at 0.00423 µg/mL (≈ 6.79 nM) in data set [6] and 1 ng/mL (≈ 1.61 nM) in data set [7]. Besides, the “pesticidal activity” value in the data set with indicator organisms is “lack of pesticidal activity”. Also, the “9KB ED50” value in data set [8] is < 10^-12 mcg/ml. In addition, the selectivity of cytotoxicities entry in the data set with human tumor cell lines is on record as “more selective cytotoxicities than bullatacin”.
`CCCCCCCCCC[C@H](O)[C@H]1CC[C@H]([C@H]2CC[C@H]([C@H](O)CCCCCCCCCC[C@@H](O)CC3C[C@H](C)OC3=O)O2)O1` (stereo partly shown) [Dihydro-bullatacin]: the IC50 in data set [4] is 0.0333 ng/mL (≈ 0.0533 nM); in data set [7], less than 0.001 ng/mL. The LC50 in data set [5] was 0.0145 µg/mL (≈ 23.2 nM).
Take `CCCCCCCCCC[C@H](OC(C)=O)[C@H]1CC[C@H]([C@H]2CC[C@H]([C@H](O)CCCCCCCCCCCCC3=C[C@H](C)OC3=O)O2)O1` [Uvaricin]: the “activity in vivo against P-388 lymphocytic leukemia in mice” value in data set [9] is reported as “demonstrated activity in vivo”.
On to `CCCCCCC(O)CCCC(O)C1CCC(C2CCC(C(O)CCCCCCCCCCCCC3=CC(C)OC3=O)O2)O1` (stereo not shown) [isorollinicin], for which the “in vitro cytotoxicity against P-388” value in [10] is on record as “in vitro cytotoxicity”.
Take `CCCCCCCCCCC(O)C1CCC(C2CCC(C(O)CCCCCCCCCCC(O)CC3=CC(C)OC3=O)O2)O1` (stereo not shown) [rolliniastatin]: in the data set with PS, the life extension was 28%.
Regarding `CCCCCCCCC[C@@H](O)[C@@H](O)[C@@H]1CC[C@@H]([C@@H]2CC[C@@H]([C@@H](O)CCCCCCCCCCCCC3=CC(C)OC3=O)O2)O1` (stereo partly shown) [rollinicin], the “in vitro cytotoxicity against P-388” value in [10] is listed as “in vitro cytotoxicity”.
